Experimental data: patent US4918064A, “Phenyl glycines for use in reducing neurotoxic injury” (G. D. Searle & Co., priority 1987, dated 1990)

What was measured:
NMDA receptor = assay: NMDA-specific L-[3H]glutamate receptor binding assay, synaptic plasma membranes; details: L-[3H]glutamate 12.5 nM, Triton X-100 treated SPM, 0-4° C., 10 min
Experimental: Synaptic plasma membranes (SPM) were prepared as previously described [Monahan, J. B. and Michel, J., "Identification and Characterization of an N-methyl-D-aspartate-specific L[^3 H]glutamate Recognition Site in Synaptic Plasma Membranes, J. Neurochem., 48, 1699-1708 (1987)]. The SPM were stored at a concentration of 10-15 mg/ml in 0.32M sucrose, 0.5 mM EDTA, 1 mM MgSO4, 5 mM Tris/SO4, pH 7.4, under liquid nitrogen. The identity and purity of the subcellular fractions were confirmed by both electron microscopy and marker enzymes. Protein concentrations were determined by using a modification of the method of Lowry [Ohnishi, S. T. and Barr, J. K., "A Simplified Method of Quantitating Proteins Using the Biuret and Phenol Reagents", Anal. Biochem., 86, 193-197 (1978)].
Prior to use in the NMDA-specific L-[^3 H]glutamate binding assay the SPM were thawed, diluted twenty fold with 50 mM Tris/acetate, pH 7.4 containing 0.04% (v/v) Triton X-100, incubated for 30 minutes at 37° C. and centrifuged as described above. The Triton X-100 treated membranes were washed with 50 mM Tris/acetate, pH 7.4 and centrifuged at 100,000 g for 15 minutes a total of four times.
The basic procedure for the receptor subclass binding assays was similar. This general method involved adding the radioligand (12.5 nM L-[^3 H]glutamate; 0.5 nM [^3 H]kainate or 10 nM [^3 H]AMPA) to the appropriate concentration of the test compound and initiating the assay by the addition of ice cold synaptic plasma membranes (0.2-0.45 mg). The binding assays were performed in 1.5 mL centrifuge tubes with the total volume adjusted to 1.0 mL. .Additions of test compounds were made in 50 mM Tris/acetate, pH 7.4 and incubations were carried out at 0°-4° C. The incubation time for the NMDA and the AMPA binding assays was 10 minutes, for the kainate binding assay 60 minutes and for the sodium-dependent glutamate binding assay 15 minutes. The AMPA binding assay contained 100 mM KSCN and the sodium-dependent glutamate binding assay contained 150 mM sodium acetate in addition to the previously described reagents.
To terminate the incubation, the samples were centrifuged for 15 minutes at 12,000 g and 4° C. in a Beckman Microfuge 12. The supernatant was aspirated and the pelleted membranes dissolved in Beckman BTS-450 tissue solubilizer for a minimum of 6 hours at room temperature. Beckman MP scintillation cocktail containing 7 mL/1 acetic acid was then added and the samples counted on a Beckman LS 5800 or 3801 liquid scintillation counter with automatic corrections for quenching and counting efficiency.
Nonspecific binding was defined as the residual binding in the presence of either excess L-glutamate (0.1-0.4 mM), kainate (0.01 mM), or NMDA (0.5 mM), and was 15-25% of the total binding in the NMDA binding assay, 19-27% in the AMPA binding assay, 20-30% in the kainate binding assay and 10-15% in the sodium-dependent binding assay. Radioligand binding to the synaptic plasma membranes was analyzed using Scatchard and Hill transformations and the Ki values of the compounds determined using logit-log transformations. Calculations and regression analysis were performed using templates developed for Lotus 1, 2, 3 as previously described [Pullan, L. M. "Automated Radioligand Receptor Binding Analysis with Templates for Lotus", Computer Appln. Biosci., 3 131 (1987)]. Binding results are reported in Table II for example compounds of the invention. […]

hippocampal neurons [1] = assay: Hypoxia Survival Assay, cultured hippocampal neurons (MTT); format: cell-based, Sprague-Dawley rat; details: 50 μM compound
Experimental: Hippocampal neurons were obtained from embryonic day 17 Sprague-Dawley rats. The brains were removed and the hippocampus dissected, placed in ice-cold Leibovitz L-15 medium, carefully stripped of any remaining meninges, and minced into small pieces using scissors. The tissue was rinsed with calcium-magnesium-free Hanks' Balanced Salt Solution and incubated with 0.25% trypsin (Worthington), 40 μg/ml DNAase (Sigma) for 30 minutes at 36° C. Following incubation, the cells were rinsed with 10% serum-containing medium and dissociated by gentle trituration using a reduced bore diameter Pasteur pipet. […]
The neuronal survival assay utilized the compound MTT [3-(4,5-dimethylthiazol-2-yl)-2,5-diphenyl tetrazolium bromide], a pale yellow substrate that is cleaved by the mitochondrial enzyme succinate-dehydrogenase to yield a dark blue formazan product. […] The precipitate was then solubilized using 0.08N HCl/isopropanol mixture and the absorbance measured with an ELISA plate reader (Dynatech MR600) using a test wavelength of 570 nm and a reference wavelength of 630 nm. […]
The cells were grown for 2-3 weeks in 5% CO2 -in-air humidified environment at 36° C. to establish a thick network of neuronal processes with numerous spontaneously active synapses. […] Following 2 hours of exposure to normal O2 tension, the cultures were processed for morphological and quantitive biochemical neuronal cell viability assays.

hippocampal neurons [2] = format: cell-based, Sprague-Dawley rat; details: 1 μM compound
Experimental: Hippocampal neurons were obtained from embryonic day 17 Sprague-Dawley rats. The brains were removed and the hippocampus dissected, placed in ice-cold Leibovitz L-15 medium, carefully stripped of any remaining meninges, and minced into small pieces using scissors. The tissue was rinsed with calcium-magnesium-free Hanks' Balanced Salt Solution and incubated with 0.25% trypsin (Worthington), 40 μg/ml DNAase (Sigma) for 30 minutes at 36° C. Following incubation, the cells were rinsed with 10% serum-containing medium and dissociated by gentle trituration using a reduced bore diameter Pasteur pipet. The cells were plated on a polylysine-coated (0.5 rg/ml, Sigma) 96-well microtiter plates at 30,000 cells/well. Cells were maintained in fluorodeoxyuridine (5 μM) containing chemically defined medium [Bottenstein, J., Sato, G., "Growth of a Rat Neuroblastoma Cell Line in Serum-free Supplemented Medium", Proc. Nat'l. […]

NC(C(=O)O)c1ccc(CP(=O)(O)O)cc1 (stereo not drawn) [Example VI, 4-(Phosphonomethyl)phenylglycine]
Ki (NMDA receptor): 3.9 µM
protection of neurons from hypoxic insult (hippocampal neurons [1]): Maximum protection of neurons from hypoxic insult
protection of neurons from sodium azide toxicity (hippocampal neurons [2]): significant protection
